The experiment is described as follows: Fluorescence Based Assay: The details of the KEAP1 KELCH ThermoFluor® Assay Construct are as follows: Kelch domain of human KEAP 1 (321-624 aa) was used in the assay. The protein was expressed in E. coli with 6His tag that was cleaved prior to receipt for use.ThermoFluor® experiments were carried out using instruments owned by Janssen Research and Discovery, L.L.C. through its acquisition of 3-Dimensional Pharmaceuticals, Inc. 1,8-ANS (Invitrogen) was used as a fluorescent dye. Protein (KEAP Kelch) and compound solutions were dispensed into black 384-well polypropylene PCR microplates (Abgene) and overlayed with silicone oil (1 μL, Fluka, type DC 200) to prevent evaporation.Reference wells contained KEAP Kelch without compounds, and the assay conditions were as follows: 1.1 μM (0.037mg/mL) KEAP Kelch, 80 μM 1,8-ANS, 25 mM PIPES, pH 7.0, 100 mM NaCl, 0.002% Tween-20. (In general: Differential scanning fluorimetry follows unfolding on heating by fluorescence.)

pKd: −log10 of the molar value. Some results are limits rather than exact numbers.

`Cc1ncc([C@H](c2ccn3c(C(F)(F)F)nnc3c2C)C(C)(C)C(=O)O)cc1CN1CC2(CCOCC2)Oc2ncccc2S1(=O)=O` had a pKd greater than 9.00.

Molecule `Cc1cnc2c(c1)S(=O)(=O)N(Cc1cc([C@H](c3ccn4c(C5CC5)nnc4c3C)C(C)(C)C(=O)O)ccc1C)CC1(COC1)O2` had a negative logarithm of the Kd (pKd) greater than 9.00.

`Cc1ccc(C(CC(=O)O)c2ccc3c(nnn3CC3CC3)c2C)cc1CN1CC2(CC2)N(C)c2ncccc2S1(=O)=O` (stereo unspecified) had a pKd greater than 9.00. The value for `Cc1ccc([C@@H](c2ccn3c(C4CC4)nnc3c2C)C(C)(C)C(=O)O)cc1CN1CC2(COC2)Oc2ncccc2S1(=O)=O` was greater than 9.00; that for `Cc1ccc([C@@H](c2ccn3c(C(F)(F)F)nnc3c2C)C(C)(C)C(=O)O)nc1CN1CC2(CCOCC2)Oc2nc(OCCN3CCOCC3)ccc2S1(=O)=O` was greater than 9.00; that for `Cc1ccc([C@@H](CC(=O)O)c2ccc3c(nnn3C3CC3)c2C)cc1CN1C[C@]2(C)CCCN2c2ncccc2S1(=O)=O` was greater than 9.00. The result for `Cc1ccc(C(c2ccn3c(C(F)(F)F)nnc3c2C)C(C)C(=O)O)cc1CN1C[C@@H]2CCCCN2c2ncccc2S1(=O)=O` (stereo partly specified) reads greater than 9.00; that for `Cc1ccc([C@@H](CC(=O)O)c2ccn3c(C(F)(F)F)nnc3c2C)nc1CN1C[C@H]2CCCCN2c2ncc(Cl)cc2S1(=O)=O`, greater than 9.00. The molecule `Cc1ccc(C(CC(=O)O)c2ccn3c(C4CC4)nnc3c2C)cc1CN1C[C@H]2CCCN2c2ncccc2S1(=O)=O` (stereo partly specified) showed a pKd greater than 9.00. The result for `Cc1ccc([C@@H](c2ccn3c(C(F)(F)F)nnc3c2C)C(C)(C)C(=O)O)cc1CN1CC2(CCOCC2)Oc2nc(N[C@H](C)CCO)ccc2S1(=O)=O` reads greater than 9.00; that for `Cc1cc2cc(C(CC(=O)O)c3ccc(C)c(CN4C[C@@H]5CCCCN5c5ncccc5S4(=O)=O)c3)n(C)c2nn1` (stereo partly specified), greater than 9.00. For `CCn1nnc2c(C)c([C@@H](c3cnc(C)c(CN4CC5(CCOCC5)Oc5ncc(C)cc5S4(=O)=O)c3)C(C)(C)C(=O)O)ccc21`, the negative-log Kd (pKd) was greater than 9.00. For `Cc1ccc([C@@H](CC(=O)O)c2ccn3c(C(F)(F)F)nnc3c2C)cc1CN1CC2(COC2)Oc2ccccc2S1(=O)=O`, the pKd was greater than 9.00. The value for `CCn1nnc2c(C)c([C@H](CC(=O)O)c3ccc(C)c(CN4CC5(COC5)Oc5ccccc5S4(=O)=O)n3)ccc21` was greater than 9.00; that for `Cc1ccc([C@H](CC(=O)O)c2ccn3c(C(F)(F)F)nnc3c2C)cc1CN1C[C@H]2CCCN2c2ncccc2S1(=O)=O` was greater than 9.00.

The molecule `CC[C@@H]1CN(Cc2cc([C@@H](CC(=O)O)c3ccn4c(C(F)(F)F)nnc4c3C)ccc2C)S(=O)(=O)c2cccnc2O1` gave a pKd greater than 9.00. On to `Cc1ccc([C@@H](CC(=O)O)c2ccn3c(C(F)F)nnc3c2C)cc1CN1C[C@@H]2CCCN2c2ncc(C#N)cc2S1(=O)=O`, for which the pKd is greater than 9.00.

As for `Cc1ccc([C@@H](c2ccn3c(C(F)F)nnc3c2C)C(C)(C)C(=O)O)cc1CN1CC2(CCOCC2)Oc2ncccc2S1(=O)=O`, the pKd is greater than 9.00. `Cc1ccc([C@@H](CC(=O)O)c2ccn3c(C(F)(F)F)nnc3c2C)cc1CN1C[C@H]2CCC(F)(F)CN2c2ncccc2S1(=O)=O` gave a pKd greater than 9.00. The result for `Cc1ccc(C(CC(=O)O)c2ccc3c(nnn3C3CC3)c2C)cc1CN1C[C@@H]2CCCCN2c2ccccc2S1(=O)=O` (stereo partly specified) reads greater than 9.00; that for `Cc1ccc(C(CC(=O)O)c2ccn3c(C(F)(F)F)nnc3c2C)nc1CN1CC2(CC2)Oc2ncccc2S1(=O)=O` (stereo unspecified), greater than 9.00. The value for `Cc1ccc(C(CC(=O)O)c2ccn3c(C)nnc3c2)cc1CN1CC(C)(C)Oc2ncccc2S1(=O)=O` (stereo unspecified) was greater than 9.00; that for `Cc1ccc([C@H](CC(=O)O)c2ccc3c(nnn3CC3CC3)c2C)cc1CN1C[C@@H]2CCCCN2c2ncccc2S1(=O)=O` was greater than 9.00.

In the case of `Cc1ccc2c(n1)OC1(CC1)CN(Cc1cc([C@H](CC(=O)O)c3ccn4c(C(F)(F)F)nnc4c3C)ccc1C)S2(=O)=O`, the negative-log Kd (pKd) is greater than 9.00. The result for `Cc1ccc([C@H](CC(=O)O)c2ccn3c(C(F)(F)F)nnc3c2C)cc1CN1CC2(CC2)Oc2nc(NCCO)ccc2S1(=O)=O` reads greater than 9.00. The result for `Cc1ccc([C@@H](CC(=O)O)c2ccn3c(C(F)F)nnc3c2C)cc1CN1CC2(CCOCC2)Oc2ncc(F)cc2S1(=O)=O` reads greater than 9.00; that for `Cc1ccc([C@H](CC(=O)O)c2ccn3c(C(F)F)nnc3c2C)cc1CN1C[C@]2(C)CCCN2c2ncccc2S1(=O)=O`, greater than 9.00. The value for `Cc1cnc2c(c1)S(=O)(=O)N(Cc1cc(C(CC(=O)O)c3ccn4c(C(F)F)nnc4c3C)ccc1C)C[C@@H]1CCCCN21` (stereo partly specified) was greater than 9.00; that for `Cc1ccc([C@@H](c2ccn3c(C(F)F)nnc3c2C)C(C)(C)C(=O)O)nc1CN1CC2(CCOCC2)Oc2nc(OCCN3CCCCC3)c(C)cc2S1(=O)=O` was greater than 9.00; that for `CCn1nnc2c(C)c(C(c3cnc(C)c(CN4CC5(CCOCC5)Oc5ncc(C)cc5S4(=O)=O)c3)C(C)(C)C(=O)O)ccc21` (stereo unspecified) was greater than 9.00. Consider `Cc1cnc2c(c1)S(=O)(=O)N(Cc1cc([C@H](c3cc4cc(C)nnc4n3C)C(C)(C)C(=O)O)ccc1C)CC1(CC1)O2`, for which the negative logarithm of the Kd (pKd) was greater than 9.00. The result for `Cc1ccc([C@@H](CC(=O)O)c2ccn3c(C(F)(F)F)nnc3c2C)cc1CN1CC2(COC2)Oc2ncccc2S1(=O)=O` reads greater than 9.00. The result for `Cc1ccc([C@H](CC(=O)O)c2ccn3c(C)nnc3c2)cc1CN1C[C@H]2CCCN2c2ncccc2S1(=O)=O` reads greater than 9.00; that for `Cc1ccc([C@@H](c2ccc3c(nnn3CC3CC3)c2C)C(C)(C)C(=O)O)cc1CN1CC2(CCOCC2)Oc2ncccc2S1(=O)=O`, greater than 9.00. In the case of `CCn1nnc2c(C)c([C@@H](CC(=O)O)c3ccc(C)c(CN4C[C@@H]5CCCN5c5ccccc5S4(=O)=O)c3)ccc21`, the negative-log Kd (pKd) was greater than 9.00. In turn, `Cc1cnc2c(c1)S(=O)(=O)N(Cc1cc([C@H](c3ccn4c(C(F)(F)F)nnc4c3C)C(C)(C)C(=O)O)ccc1C)C[C@@]1(CCOC1)O2` gave a pKd greater than 9.00. The result for `Cc1ccc(C(CC(=O)O)c2ccn3c(C(F)(F)F)nnc3c2C)cc1CN1C[C@H]2CCCCN2c2ncccc2S1(=O)=O` (stereo partly specified) reads greater than 9.00; that for `Cc1ccc([C@H](CC(=O)O)c2ccn3c(C(F)F)nnc3c2C)cc1CN1C[C@H]2CCCN2c2ncc(C#N)cc2S1(=O)=O`, greater than 9.00. The value for `Cc1ccc([C@@H](c2ccc3c(nnn3C3CC3)c2C)C(C)(C)C(=O)O)cc1CN1CC2(CC2)Oc2nc(N[C@@H](C)CN3CCCCC3)c(C)cc2S1(=O)=O` was greater than 9.00. The molecule `Cc1ccc([C@H](c2ccn3c(C(F)(F)F)nnc3c2C)C(C)(C)C(=O)O)cc1CN1CC2(CCOCC2)Oc2nc(NC3CC(O)C3)c(C)cc2S1(=O)=O` (stereo partly specified) had a pKd greater than 9.00. The value for `Cc1ccc([C@@H](c2ccn3c(C(F)(F)F)nnc3c2C)C(C)(C)C(=O)O)cc1CN1C[C@@]2(CCOC2)Oc2ncccc2S1(=O)=O` was greater than 9.00; that for `Cc1cnc2c(c1)S(=O)(=O)N(Cc1cc([C@@H](CC(=O)O)c3ccn4c(C(F)F)nnc4c3C)ccc1C)CC1(CC1)O2` was greater than 9.00.

For the molecule `Cc1ccc(C(c2ccn3c(C(F)(F)F)nnc3c2C)C(C)(C)C(=O)O)cc1CN1CC2(CCOCC2)Oc2nc(N[C@@H](C)CCO)ccc2S1(=O)=O` (stereo partly specified), the pKd is greater than 9.00. The value for `CCn1nnc2c(C)c([C@H](CC(=O)O)c3ccc(C)c(CN4CC5(CC5)Oc5ncccc5S4(=O)=O)n3)ccc21` was greater than 9.00; that for `Cc1ccc([C@@H](c2ccn3c(C(F)(F)F)nnc3c2C)C(C)(C)C(=O)O)cc1CN1CC2(CCOCC2)Oc2nc(OC(C)CN3CCCCC3)c(C)cc2S1(=O)=O` (stereo partly specified) was greater than 9.00; that for `Cc1ccc([C@@H](c2ccn3c(C(F)(F)F)nnc3c2C)C(C)(C)C(=O)O)cc1CN1CC2(CC2)Oc2nc(OCCN3CCCCC3)ccc2S1(=O)=O` was greater than 9.00. The result for `Cc1ccc([C@H](c2ccc3c(nnn3C3CC3)c2C)C(C)(C)C(=O)O)cc1CN1CC2(CCNCC2)Oc2ncccc2S1(=O)=O` reads greater than 9.00; that for `CCn1nnc2c(C)c(C(CC(=O)O)c3ccc(C)c(CN4C[C@@H]5CCCCN5c5ncccc5S4(=O)=O)n3)ccc21` (stereo partly specified), greater than 9.00; that for `Cc1ccc([C@@H](c2ccn3c(C(F)F)nnc3c2C)C(C)(C)C(=O)O)cc1CN1CC2(COC2)Oc2ncccc2S1(=O)=O`, greater than 9.00. The value for `CCn1nnc2c(C)c([C@H](CC(=O)O)c3ccc(C)c(CN4C[C@H]5CCCCN5c5ncccc5S4(=O)=O)n3)ccc21` was greater than 9.00.

`Cc1ccc([C@@H](c2ccn3c(C(F)(F)F)nnc3c2C)C(C)(C)C(=O)O)cc1CN1CC2(COC2)Oc2ncccc2S1(=O)=O` gave a pKd greater than 9.00. The result for `Cc1ccc([C@H](CC(=O)O)c2ccn3c(C(F)(F)F)nnc3c2C)cc1CN1C[C@H]2CCCCN2c2ncccc2S1(=O)=O` reads greater than 9.00; that for `CC[C@@H]1CN(Cc2cc([C@@H](CC(=O)O)c3ccn4c(C(F)F)nnc4c3C)ccc2C)S(=O)(=O)c2cccnc2O1`, greater than 9.00. The result for `Cc1ccc([C@@H](c2ccn3c(C(F)(F)F)nnc3c2C)C(C)(C)C(=O)O)cc1CN1CC2(CNC2)Oc2ncccc2S1(=O)=O` reads greater than 9.00; that for `Cc1cnc2c(c1)S(=O)(=O)N(Cc1cc([C@@H](c3ccn4c(C(F)F)nnc4c3C)C(C)(C)C(=O)O)ccc1C)CC1(COC1)O2`, greater than 9.00; that for `CCn1nnc2c(C)c([C@H](CC(=O)O)c3ccc(C)c(CN4CC5(CCOCC5)Oc5ccc(F)cc5S4(=O)=O)n3)ccc21`, greater than 9.00.

Consider `Cc1ccc([C@@H](CC(=O)O)c2ccn3c(C(F)(F)F)nnc3c2C)nc1CN1C[C@@H]2CCCCN2c2ncc(Cl)cc2S1(=O)=O`, for which the pKd is greater than 9.00. The value for `COCCCNc1ccc2c(n1)OC1(CC1)CN(Cc1cc([C@H](CC(=O)O)c3ccn4c(C(F)(F)F)nnc4c3C)ccc1C)S2(=O)=O` was greater than 9.00; that for `Cc1ccc([C@@H](c2cc(C)n3c(C(F)(F)F)nnc3c2C)C(C)C(=O)O)cc1CN1C[C@@H]2CCCCN2c2ncccc2S1(=O)=O` (stereo partly specified) was greater than 9.00; that for `Cc1ccc([C@H](CC(=O)O)c2ccn3c(C(F)(F)F)nnc3c2C)cc1CN1C[C@H]2CCCN2c2ccccc2S1(=O)=O` was greater than 9.00.

With `Cc1ccc([C@H](CC(=O)O)c2ccn3c(C(F)(F)F)nnc3c2C)nc1CN1C[C@@H]2CCCCN2c2ncccc2S1(=O)=O`, the pKd is greater than 9.00.

Broadly, the pKd is the Kd on a negative log10 scale, so that one unit is a factor of ten. Low values mean a high Kd, high ones a low Kd.
